# Data taken from patent publication US20080228408A1, “Method for Determining the State of an Ensemble of Cells and System for the Implementation of the Method” (priority 2005, published 2008).
# Tested on: neuronal cells
# Test: Toxicogenomic DNA chip test: gene expression level (RES) in cells exposed to the compound compared to unexposed cells
# Format: cell-based
# Source text: One wishes to carry out the evaluation of the toxicity of a collection of (15) pesticides using a toxicogenomic analysis of the impact of these pesticides on neuronal cells, according to 4 modes of exposure of the cells to the compounds:
# DNA chips built specifically to test the expression level of the 51 genes in cells under study, each chip being configured only for one gene in our case, each chip allowing to carry out for each gene a redundant number of measurements (16) in order to stabilize the levels of expression by analysing the results on average. The spots on the chips are numbered sp1 to sp16.
# An automated device D5 allowing, on signal of execution of the C2 test, to take a E1 sample of the cell culture C (non exposed) and a E2 sample of the cell culture C exposed to the compound by the device described previously under the conditions specified with the configuration, then to use the D1 device to select a DNA chip corresponding to the gene specified at the time of the configuration, and to put the samples E1 and E2 thus obtained in the presence of the aforementioned DNA chip according to the methods described in the D1 device,
# The result of a test, RES, transmitted by the Resource Unit to the PC, is a raw numerical value which indicates the expression level of the gene indicated in the configuration, for the cell exposed to the compound under the conditions of concentration and exposure duration specified in the configuration, compared to the expression level of the same gene in an unexposed cell of identical nature.
# The following results are based on 3 evaluations, each using a different strategy, the target cells being neuronal cells, the mode of exposure being Expo11.
# The results presented in table 2 show the values obtained in (052) for the evaluation of Paraquat according to the 4 modes Expo11, Expo12, Expo21, Expo22 carried out. The missing data are not relevant (ranging between 0.5 and 2 strictly).
# [1] = Neuron, C2 (IC50/10), 24 h (Expo21)
# [2] = Neuron, C2 (IC50/10), 48 h (Expo22)
# [3] = neuronal cells, Expo11 (IC50, 24 h), strategy of selection by class
smiles,measurement,setting,value
C[n+]1ccc(-c2cc[n+](C)cc2)cc1 [Paraquat],ALB gene expression level RES (exposed/unexposed cells),[1],0.34
same,APAF1 gene expression level RES (exposed/unexposed cells),[1],0.20
same,AR gene expression level RES (exposed/unexposed cells),[1],0.08
same,ATF6 gene expression level RES (exposed/unexposed cells),[1],0.17
same,ATM gene expression level RES (exposed/unexposed cells),[1],0.11
same,BAX gene expression level RES (exposed/unexposed cells),[1],0.09
same,BCL2 gene expression level RES (exposed/unexposed cells),[1],0.14
same,BZRP gene expression level RES (exposed/unexposed cells),[1],0.14
same,C12ORF8 gene expression level RES (exposed/unexposed cells),[1],0.22
same,CALR gene expression level RES (exposed/unexposed cells),[1],0.38
same,CDC25C gene expression level RES (exposed/unexposed cells),[1],0.37
same,CDK4 gene expression level RES (exposed/unexposed cells),[1],0.29
same,CDKN1A gene expression level RES (exposed/unexposed cells),[1],0.13
same,CREB1 gene expression level RES (exposed/unexposed cells),[1],0.29
same,CTSB gene expression level RES (exposed/unexposed cells),[1],0.20
same,CTSD gene expression level RES (exposed/unexposed cells),[1],0.05
same,EGF gene expression level RES (exposed/unexposed cells),[1],0.21
same,EPHX1 gene expression level RES (exposed/unexposed cells),[1],0.19
same,FOS gene expression level RES (exposed/unexposed cells),[1],0.12
same,GADD45A gene expression level RES (exposed/unexposed cells),[1],0.20
same,GPX1 gene expression level RES (exposed/unexposed cells),[1],0.09
same,GSS gene expression level RES (exposed/unexposed cells),[1],0.28
same,GSTM3 gene expression level RES (exposed/unexposed cells),[1],0.36
same,HOXD1 gene expression level RES (exposed/unexposed cells),[1],0.11
same,HSPA5 gene expression level RES (exposed/unexposed cells),[1],0.33
same,HSPA9B gene expression level RES (exposed/unexposed cells),[1],0.16
same,JUN gene expression level RES (exposed/unexposed cells),[1],0.33
same,MDM2 gene expression level RES (exposed/unexposed cells),[1],0.05
same,NFKB1 gene expression level RES (exposed/unexposed cells),[1],0.26
same,NOS2A gene expression level RES (exposed/unexposed cells),[1],0.30
same,PARA gene expression level RES (exposed/unexposed cells),[1],0.04
same,PGR gene expression level RES (exposed/unexposed cells),[1],0.12
same,RAD50 gene expression level RES (exposed/unexposed cells),[1],0.35
same,RAD51 gene expression level RES (exposed/unexposed cells),[1],0.22
same,SOD1 gene expression level RES (exposed/unexposed cells),[1],0.24
same,TF1 gene expression level RES (exposed/unexposed cells),[1],0.53
same,THBS1 gene expression level RES (exposed/unexposed cells),[1],0.08
same,TP53 gene expression level RES (exposed/unexposed cells),[1],0.31
same,TUBA1 gene expression level RES (exposed/unexposed cells),[1],0.03
same,XBP1 gene expression level RES (exposed/unexposed cells),[1],0.24
same,A2M gene expression level RES (exposed/unexposed cells),[2],0.04
same,AITCH gene expression level RES (exposed/unexposed cells),[2],0.03
same,ALB gene expression level RES (exposed/unexposed cells),[2],0.02
same,APAF1 gene expression level RES (exposed/unexposed cells),[2],0.05
same,AR gene expression level RES (exposed/unexposed cells),[2],0.05
same,ATF6 gene expression level RES (exposed/unexposed cells),[2],0.06
same,ATM gene expression level RES (exposed/unexposed cells),[2],0.04
same,BAX gene expression level RES (exposed/unexposed cells),[2],0.05
same,BCL2 gene expression level RES (exposed/unexposed cells),[2],0.03
same,BZRP gene expression level RES (exposed/unexposed cells),[2],0.04
same,C12ORF8 gene expression level RES (exposed/unexposed cells),[2],0.04
same,CALR gene expression level RES (exposed/unexposed cells),[2],0.11
same,CDC25C gene expression level RES (exposed/unexposed cells),[2],0.05
same,CDK4 gene expression level RES (exposed/unexposed cells),[2],0.06
same,CDKN1A gene expression level RES (exposed/unexposed cells),[2],0.02
same,CREB1 gene expression level RES (exposed/unexposed cells),[2],0.05
same,CTSB gene expression level RES (exposed/unexposed cells),[2],0.06
same,CTSD gene expression level RES (exposed/unexposed cells),[2],0.03
same,EGF gene expression level RES (exposed/unexposed cells),[2],0.05
same,EPHX1 gene expression level RES (exposed/unexposed cells),[2],0.08
same,FOS gene expression level RES (exposed/unexposed cells),[2],0.05
same,GADD45A gene expression level RES (exposed/unexposed cells),[2],0.04
same,GPX1 gene expression level RES (exposed/unexposed cells),[2],0.02
same,GSS gene expression level RES (exposed/unexposed cells),[2],0.03
same,GSTM3 gene expression level RES (exposed/unexposed cells),[2],0.06
same,HOXD1 gene expression level RES (exposed/unexposed cells),[2],0.05
same,HSPA5 gene expression level RES (exposed/unexposed cells),[2],0.07
same,HSPA9B gene expression level RES (exposed/unexposed cells),[2],0.06
same,JUN gene expression level RES (exposed/unexposed cells),[2],0.05
same,MDM2 gene expression level RES (exposed/unexposed cells),[2],0.06
same,NFKB1 gene expression level RES (exposed/unexposed cells),[2],0.05
same,NOS2A gene expression level RES (exposed/unexposed cells),[2],0.06
same,PARA gene expression level RES (exposed/unexposed cells),[2],0.05
same,PGR gene expression level RES (exposed/unexposed cells),[2],0.04
same,RAD50 gene expression level RES (exposed/unexposed cells),[2],0.06
same,RAD51 gene expression level RES (exposed/unexposed cells),[2],0.06
same,SOD1 gene expression level RES (exposed/unexposed cells),[2],0.04
same,TF1 gene expression level RES (exposed/unexposed cells),[2],0.05
same,THBS1 gene expression level RES (exposed/unexposed cells),[2],0.06
same,TP53 gene expression level RES (exposed/unexposed cells),[2],0.05
same,TUBA1 gene expression level RES (exposed/unexposed cells),[2],0.04
same,XBP1 gene expression level RES (exposed/unexposed cells),[2],0.06
same,A2M marker test: relevant level of expression (RES <=0.5 or >=2),[3],relevant result
same,CDKN1A marker test: relevant level of expression (RES <=0.5 or >=2),[3],relevant result was found
same,CYP19A1 marker test: relevant level of expression (RES <=0.5 or >=2),[3],did not provide any relevant result
same,SOD1 marker test: relevant level of expression (RES <=0.5 or >=2),[3],without success
